Assay results taken from PubChem BioAssay AID330 (DTP/NCI, 2004).
Values joined by “and” are separate entries in the source; they are usually repeats but may differ in a detail not shown here. Equal entries are not always repeated. Toxic doses and inconclusive results are not listed. How the source made its calls: active means survival T/C of 150% or more; inactive means T/C below 125% in these data.

Tested on: P388 leukemia ip, CD2F1 mice, survival T/C
Assay: NCI In Vivo Anticancer Drug Screen. Data for tumor model P388 Leukemia (intraperitoneal) in CD2F1 (CDF1) mice
Details: endpoint: median survival time, higher = longer survival
Experimental: The antitumor activity of compounds was measured in mice bearing transplantable tumors. Survival or tumor size were measured and the results are expressed as the measurement made in the treated group (T) divided by the measurement made in the vehicle treated control group (C). The tumor model used in this assay is P388 Leukemia (intraperitoneal) in CD2F1 (CDF1) mice

[1] = dose: 50.0 mg/kg/injection, schedule: Q01DX005 (ip), vehicle: Klucel (hydroxypropylcellulose) (HPC)
[2] = dose: 100.0 mg/kg/injection, schedule: Q01DX005 (ip), vehicle: Klucel (hydroxypropylcellulose) (HPC)
[3] = dose: 200.0 mg/kg/injection, schedule: Q01DX005 (ip), vehicle: Klucel (hydroxypropylcellulose) (HPC)
[4] = dose: 60.0 mg/kg/injection, schedule: Q01DX005 (ip), vehicle: Klucel (hydroxypropylcellulose) (HPC)
[5] = dose: 120.0 mg/kg/injection, schedule: Q01DX005 (ip), vehicle: Klucel (hydroxypropylcellulose) (HPC)
[6] = dose: 25.0 mg/kg/injection, schedule: Q01DX005 (ip), vehicle: Klucel (hydroxypropylcellulose) (HPC)
[7] = dose: 240.0 mg/kg/injection, schedule: Q01DX005 (ip), vehicle: Klucel (hydroxypropylcellulose) (HPC)
[8] = dose: 100.0 mg/kg/injection, schedule: Q01DX005 (ip), vehicle: saline with Tween-80
[9] = dose: 200.0 mg/kg/injection, schedule: Q01DX005 (ip), vehicle: saline with Tween-80
[10] = dose: 50.0 mg/kg/injection, schedule: Q01DX005 (ip), vehicle: saline with Tween-80
[11] = dose: 60.0 mg/kg/injection, schedule: Q01DX005 (ip), vehicle: saline with Tween-80
[12] = dose: 120.0 mg/kg/injection, schedule: Q01DX005 (ip), vehicle: saline with Tween-80
[13] = dose: 240.0 mg/kg/injection, schedule: Q01DX005 (ip), vehicle: saline with Tween-80
[14] = dose: 15.0 mg/kg/injection, schedule: Q01DX005 (ip), vehicle: saline with Tween-80
[15] = dose: 50.0 mg/kg/injection, schedule: Q01DX009 (ip), vehicle: saline with Tween-80
[16] = dose: 100.0 mg/kg/injection, schedule: Q01DX009 (ip), vehicle: saline with Tween-80

Measured: T/C

Clc1cccc(Cl)c1C(Nc1nccs1)Nc1nccs1
inactive: [1] 100 % of control | [2] 103 % of control | [3] 114 % of control

O=C(N=c1sc2ccccc2s1)N=c1sc2ccccc2s1
inactive: dose: 30.0 mg/kg/injection, schedule: Q01DX005 (ip), vehicle: Klucel (hydroxypropylcellulose) (HPC) 99 % of control | [4] 86 % of control and 91 % of control | [5] 95 % of control

S=C(Nc1ccc(Cl)c(Cl)c1)SC1CCCCC1
inactive: dose: 25.0 mg/kg/injection, schedule: Q01DX009 (ip), vehicle: saline 107 % of control | dose: 50.0 mg/kg/injection, schedule: Q01DX009 (ip), vehicle: saline 91 % of control | dose: 50.0 mg/kg/injection, schedule: Q01DX009 (ip), vehicle: suspension in saline 105 % of control | dose: 100.0 mg/kg/injection, schedule: Q01DX009 (ip), vehicle: saline 100 % of control | dose: 100.0 mg/kg/injection, schedule: Q01DX009 (ip), vehicle: suspension in saline 115 % of control | dose: 200.0 mg/kg/injection, schedule: Q01DX009 (ip), vehicle: saline 123 % of control | dose: 200.0 mg/kg/injection, schedule: Q01DX009 (ip), vehicle: suspension in saline 120 % of control

CC1=CC(=O)C2OC(=O)CC3C=CCC1C32C (stereo not drawn)
inactive: [6] 99 % of control | [1] 103 % of control | [2] 103 % of control

c1ccc2c(NCCCN3CCN(CCCNc4c5ccccc5nc5ccccc45)CC3)c3ccccc3nc2c1
inactive: dose: 0.93 mg/kg/injection, schedule: Q01DX005 (ip), vehicle: Klucel (hydroxypropylcellulose) (HPC) 110 % of control | dose: 1.88 mg/kg/injection, schedule: Q01DX005 (ip), vehicle: Klucel (hydroxypropylcellulose) (HPC) 104 % of control

CCOC(=O)N(NC(=O)Nc1ccccc1)C(c1ccccc1)c1ccccc1
inactive: dose: 75.0 mg/kg/injection, schedule: Q01DX009 (ip), vehicle: saline with Tween-80 94 % of control | dose: 150.0 mg/kg/injection, schedule: Q01DX009 (ip), vehicle: saline with Tween-80 94 % of control | dose: 300.0 mg/kg/injection, schedule: Q01DX009 (ip), vehicle: saline with Tween-80 98 % of control

Cn1nnc(-c2cccc(F)c2)n1
inactive: [6] 105 % of control | [1] 91 % of control and 96 % of control | [2] 93 % of control | [3] 91 % of control

C[CH2][Sn]([CH2]C)([N]=C=S)[N]=C=S.c1ccc2nc(-c3ccc4ccccc4n3)ccc2c1
inactive: [4] 95 % of control | [5] 96 % of control | [7] 98 % of control

CCOC(=O)C(Cc1ccc(N)cc1)N1C(=O)c2ccccc2C1=O (stereo not drawn)
inactive: dose: 50.0 mg/kg/injection, schedule: Q01DX009 (ip), vehicle: distilled water + Tween-80 + alcohol 100 % of control | dose: 100.0 mg/kg/injection, schedule: Q01DX009 (ip), vehicle: distilled water + Tween-80 + alcohol 95 % of control | dose: 200.0 mg/kg/injection, schedule: Q01DX009 (ip), vehicle: distilled water + Tween-80 + alcohol 91 % of control

Nc1c(C(=O)NCc2ccccc2)c2nc3c(C(=O)NCc4ccccc4)cccc3oc-2cc1=O
inactive: dose: 1.56 mg/kg/injection, schedule: Q01DX005 (ip), vehicle: saline with Tween-80 99 % of control | dose: 3.12 mg/kg/injection, schedule: Q01DX005 (ip), vehicle: saline with Tween-80 89 % of control | dose: 6.25 mg/kg/injection, schedule: Q01DX005 (ip), vehicle: saline with Tween-80 89 % of control | [8] 86 % of control | [9] 100 % of control

O=C1CSc2nc3c(Cl)cc(Cl)cc3c(=O)n21
inactive: [10] 108 % of control | [8] 100 % of control | [9] 105 % of control

O=C1c2ccccc2C(=O)C1NOCCCCl
inactive: [4] 100 % of control | [5] 99 % of control | [7] 101 % of control

O=Cc1c(-c2ccccc2)nc2sc(-c3ccc4c(c3)OCO4)nn12
inactive: [11] 102 % of control | [12] 99 % of control | [13] 99 % of control

Cc1cc[n+](C2=C(Nc3cccc(C(F)(F)F)c3)C(=O)c3ccccc3C2=O)cc1
inactive: dose: 3.75 mg/kg/injection, schedule: Q01DX005 (ip), vehicle: saline with Tween-80 105 % of control | dose: 7.5 mg/kg/injection, schedule: Q01DX005 (ip), vehicle: saline with Tween-80 119 % of control | [14] 105 % of control

COc1cccc(OCC(=O)O)c1OC
inactive: dose: 100.0 mg/kg/injection, schedule: Q01DX001 (ip), vehicle: Klucel (hydroxypropylcellulose) (HPC) 98 % of control | dose: 200.0 mg/kg/injection, schedule: Q01DX001 (ip), vehicle: Klucel (hydroxypropylcellulose) (HPC) 97 % of control

CC1(C(Cl)(Cl)Cl)C=CC(=O)C=C1
inactive: [15] 99 % of control | [16] 107 % of control | dose: 200.0 mg/kg/injection, schedule: Q01DX009 (ip), vehicle: saline with Tween-80 99 % of control

Cc1ccccc1OCC1COCN(C(C)(C)C)CO1 (stereo not drawn)
inactive: [11] 100 % of control | [12] 107 % of control | [13] 102 % of control

Cn1c(=O)oc2cc(N)c(Cl)cc21
inactive: dose: 12.5 mg/kg/injection, schedule: Q01DX005 (ip), vehicle: Klucel (hydroxypropylcellulose) (HPC) 88 % of control | [6] 94 % of control | [1] 100 % of control and 87 % of control

Oc1c(Cl)c2nc3ccccc3nc2c2ccccc12
inactive: [14] 100 % of control | dose: 30.0 mg/kg/injection, schedule: Q01DX005 (ip), vehicle: saline with Tween-80 102 % of control | [11] 88 % of control and 98 % of control

COC(=O)C1=COC(OC2OC(CO)C(O)C(O)C2O)C2C(C)C(O)C(OC(=O)/C=C/c3ccc(OC)cc3)C12 (stereo not drawn)
inactive: dose: 9.38 mg/kg/injection, schedule: Q01DX005 (ip), vehicle: Klucel (hydroxypropylcellulose) (HPC) 96 % of control | dose: 37.5 mg/kg/injection, schedule: Q01DX005 (ip), vehicle: Klucel (hydroxypropylcellulose) (HPC) 88 % of control | [4] 93 % of control | dose: 75.0 mg/kg/injection, schedule: Q01DX005 (ip), vehicle: Klucel (hydroxypropylcellulose) (HPC) 88 % of control | [5] 93 % of control | [7] 86 % of control

C=C(C)[C@H]1CCC23C[C@@H]4C(C[C@H]2C1(C)CCC(=O)O)C4(C)C3 (stereo partly drawn)
inactive: dose: 5.5 mg/kg/injection, schedule: Q01DX005 (ip), vehicle: Klucel (hydroxypropylcellulose) (HPC) 100 % of control | dose: 11.0 mg/kg/injection, schedule: Q01DX005 (ip), vehicle: Klucel (hydroxypropylcellulose) (HPC) 106 % of control | dose: 22.0 mg/kg/injection, schedule: Q01DX005 (ip), vehicle: Klucel (hydroxypropylcellulose) (HPC) 100 % of control | [6] 91 % of control | dose: 44.0 mg/kg/injection, schedule: Q01DX005 (ip), vehicle: Klucel (hydroxypropylcellulose) (HPC) 100 % of control | [1] 100 % of control | [2] 91 % of control | [3] 91 % of control

CC(=O)Nc1ccc(/C=C\c2ccnc3ccccc23)cc1
inactive: dose: 25.0 mg/kg/injection, schedule: Q04DX002 (ip), vehicle: saline with Tween-80 109 % of control

Cc1ccc(NCCN(C)C)c2c(=O)c3ccc(O)cc3sc12
inactive: [15] 110 % of control | [16] 110 % of control

O[C@H]1CCC[C@H]1NCc1ccnc2cc(Cl)ccc12
inactive: [10] 100 % of control | [8] 89 % of control | [9] 91 % of control

CCCCOC(=O)N(C)SN(C)C(=O)Oc1cccc(C(C)C)c1
inactive: [15] 121 % of control
